Like-named read-outs stand apart in the source and are kept apart here.

The subject of data set [1] is SARS-CoV-2 Omicron BA.5 (NTU280). Put plainly: Antiviral plaque reduction assay, Omicron BA.5 strain, Vero E6 cells. It is filed as cell-based.
The test system of another data set is wild-type SARS-CoV-2. As to the kind of experiment: microbe, parasite or virus in culture. It is filed as cell-based. As to conditions: Severe acute respiratory syndrome coronavirus 2, read-out: EC50 wild-type strain.
Data set [2] deals with SARS-CoV-2 Delta virus (NTU92). Put plainly: microbe, parasite or virus in culture. It is filed as cell-based.
Data set [3] in a line: Cytotoxicity, acid phosphatase (ACP) assay. It is filed as cell-based. As to conditions: African green monkey. As to the method:
(§1) Cytotoxicity of the compounds was determined using the acid phosphatase (ACP) assay. Vero E6 cells were seeded onto a 96-well culture plate at a concentration of 2 × 10^4 cells per well. Next day, the medium was removed, and each well was washed once with PBS before adding DMEM containing 2% FBS and different concentrations of test compounds. After 3 days of incubation at 37 °C, the medium was removed, and each well was washed once with PBS. Next, a buffer containing 0.1 M sodium acetate (pH = 5.0), 0.1% Triton X-100, and 5 mM p-nitrophenyl phosphate was added. After incubating at 37 °C for 30 min, 1 N NaOH was added to stop the reaction. The absorbance was measured using an ELISA reader (VERSAmax, Molecular Devices, Sunnyvale, CA) at a wavelength of 405 nm. The percentage of cell viability was calculated by using the following formula: Viability % = [ (At/As) × 100]%, where At and As represent the absorbance of the test compound and the solvent control, respectively. […] For each compound, the measurements were repeated at least 3 times to determine the averaged CC50 values and standard deviation.

Another data set relates to recombinant ACE2 and RBD. As to conditions: at 60 μM; cited from earlier work.
In the next data set the target is T1, furin (Homo sapiens, UniProt P09958).
T1 construct: purchased BPS Bioscience 78040
As to the kind of experiment: Furin inhibition (Furin Protease Assay Kit, fluorescence). The data set is classed as biochemical.

For a further data set, the target named is SARS-CoV-2 3CL^pro (Severe acute respiratory syndrome coronavirus 2, UniProt P0DTD1). As to the kind of experiment: 3CLpro inhibition (fluorogenic peptide). It is filed as biochemical.
The target of a further data set is SARS-CoV-2 RdRp (Severe acute respiratory syndrome coronavirus 2, UniProt P0DTD1). Put plainly: RdRp inhibition (nsp12/nsp7L8/nsp8 complex, ProFoldin kit). As to conditions: triplicate. It is filed as biochemical.
The target in a further data set is T2, cathepsin L (Homo sapiens, UniProt P07711).
T2 construct: purchased Abcam
As to the kind of experiment: Cathepsin L inhibition (Cathepsin L Protease Assay Kit, fluorescence). It is filed as biochemical.

The target in another data set is SARS-CoV-2 PL^pro (Severe acute respiratory syndrome coronavirus 2, UniProt P0DTD1). Put plainly: PLpro inhibition (proteolytic, deubiquitinating, deISGylation activities). The data set is classed as biochemical.
A further data set concerns the target T3, TMPRSS2 (Homo sapiens, UniProt O15393).
T3 construct: The recombinant TMPRSS2 ectodomain (residues 109–492), excluding the transmembrane domain; His tag; made in house; host or cells: ExpiSf9 insect cells (baculovirus)
Put plainly: TMPRSS2 inhibition (Boc-Gln-Ala-Arg-AMC fluorogenic substrate). It is filed as biochemical.

In another data set the test system is Vero E6 cells. Put plainly: Cytotoxicity, acid phosphatase (ACP) assay. The data set is classed as cell-based. As to conditions: Vero E6, 3 days. The method, then: as §1
[4] abbreviates: Severe acute respiratory syndrome coronavirus 2, Vero C1008, Omicron BA.5, plaque reduction, Vero E6, read-out: EC50 ο BA.5 (converted).
Setting [5] is: Severe acute respiratory syndrome coronavirus 2, Vero C1008, Delta strain, plaque reduction, Vero E6, entry treatment, read-out: EC50 δ.
Setting [6] is: substrate ISG15-AMC, third of three values, read-out: IC50 PL^pro, deISGylation activity.
The mark [7] stands for this setting: substrate Ub-AMC, second of three values, read-out: IC50 PL^pro, deubiquitinating activity.
The mark [8] stands for this setting: substrate Z-Arg-Leu-Arg-Gly-Gly-AMC, first of three values, read-out: IC50 PL^pro, proteolytic activity.
Where [9] appears, read: 1.3 nM TMPRSS2, 10 μM substrate, triplicate.
The mark [10] stands for this setting: 35 nM 3CL^pro, 6 μM substrate, read-out: IC50 3CL^pro.
Where [11] appears, read: one entry for PL^pro, the three activities not told apart, read-out: IC50 PL^pro.

T2 sequence (P07711 114-333): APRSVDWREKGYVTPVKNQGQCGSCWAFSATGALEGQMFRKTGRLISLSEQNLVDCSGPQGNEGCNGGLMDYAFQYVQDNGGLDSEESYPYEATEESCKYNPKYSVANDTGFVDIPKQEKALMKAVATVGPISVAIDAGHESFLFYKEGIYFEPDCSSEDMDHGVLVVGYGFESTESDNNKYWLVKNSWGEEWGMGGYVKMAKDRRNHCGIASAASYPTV
T3 sequence (O15393 109-492 S251D/R252D/Q253D/S254D/R255K limits assumed): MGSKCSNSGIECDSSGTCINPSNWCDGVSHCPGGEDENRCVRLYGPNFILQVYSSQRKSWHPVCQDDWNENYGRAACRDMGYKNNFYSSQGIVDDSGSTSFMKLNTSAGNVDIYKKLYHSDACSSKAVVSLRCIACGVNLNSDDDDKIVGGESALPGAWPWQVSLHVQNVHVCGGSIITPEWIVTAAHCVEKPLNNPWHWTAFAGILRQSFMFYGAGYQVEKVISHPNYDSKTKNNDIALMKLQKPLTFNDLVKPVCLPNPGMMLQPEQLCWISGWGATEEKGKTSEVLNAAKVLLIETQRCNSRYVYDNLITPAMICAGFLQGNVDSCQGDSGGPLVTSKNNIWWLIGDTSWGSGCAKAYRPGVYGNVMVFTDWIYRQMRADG
T1 sequence (P09958 108-794): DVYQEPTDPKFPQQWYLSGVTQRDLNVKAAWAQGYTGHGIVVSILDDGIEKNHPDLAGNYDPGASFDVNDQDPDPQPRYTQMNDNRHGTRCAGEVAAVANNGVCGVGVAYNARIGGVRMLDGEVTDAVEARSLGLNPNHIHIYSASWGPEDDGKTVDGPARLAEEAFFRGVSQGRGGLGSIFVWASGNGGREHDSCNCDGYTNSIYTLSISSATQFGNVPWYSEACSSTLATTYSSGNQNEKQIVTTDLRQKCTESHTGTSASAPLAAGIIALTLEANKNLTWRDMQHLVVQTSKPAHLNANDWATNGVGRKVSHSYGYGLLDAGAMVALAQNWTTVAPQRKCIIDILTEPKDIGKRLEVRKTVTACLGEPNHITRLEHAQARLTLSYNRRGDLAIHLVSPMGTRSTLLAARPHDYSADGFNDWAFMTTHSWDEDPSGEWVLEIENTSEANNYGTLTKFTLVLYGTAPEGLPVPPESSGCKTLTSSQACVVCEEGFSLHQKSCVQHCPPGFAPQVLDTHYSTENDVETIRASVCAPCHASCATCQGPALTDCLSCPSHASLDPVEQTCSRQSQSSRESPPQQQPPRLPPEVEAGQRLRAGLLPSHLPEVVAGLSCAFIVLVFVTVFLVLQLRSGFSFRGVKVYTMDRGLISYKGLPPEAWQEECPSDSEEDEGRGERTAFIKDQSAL
Procedure for cathepsin L: Cathepsin L activity was determined using a commercial Cathepsin L Protease Assay Kit (Abcam, U.K.) in 20 μL reaction mixtures on a 384-well plate (PerkinElmer). Different concentrations of each inhibitor were added to the assay buffer supplied with dithiothreitol (DTT) in the kit, also containing 1% DMSO from the stock solutions of inhibitors. The fluorescence intensity was monitored for 30 min at excitation and emission wavelengths of 380/460 nm. The concentration-dependent inhibition curves of cathepsin L were fitted with the equation A(I) = A(0) x {1–[I/(I + IC50)]} using GraphPad Prism (v.9.4.0). The measurements were performed in triplicate to generate the averaged IC50 values and the standard deviations.
Procedure for furin: Following the protocol as described in ref ([35]) a commercial Furin Protease Assay Kit (BPS Bioscience, catalog#78040) was employed to assay furin activities. It was conducted in 20 μL reaction mixtures on a 384-well plate (PerkinElmer) comprising 0.25 ng/μL furin, 2 μM substrate, and different concentrations of inhibitors in the assay buffer with 1% DMSO from the stock solutions of compounds. Fluorescence intensity was monitored at excitation/emission wavelengths of 380/460 nm. The concentration-dependent inhibition curves of furin were fitted with the equation A(I) = A(0) x {1–[I/(I + IC50)]} using GraphPad Prism (v.9.4.0). All of the measurements were performed in triplicate to determine the averaged IC50 values and the standard deviations.

Broadly, the EC50 is the concentration at which the effect is half-maximal. In general, CC50 refers to the concentration giving 50% cytotoxicity. On to `O=C(O[C@@H]1Cc2c(O)cc(O)cc2O[C@@H]1c1cc(O)c(=O)c2c(O)c(O)cc([C@H]3Oc4cc(O)cc(O)c4C[C@H]3OC(=O)c3cc(O)c(O)c(O)c3)c2c1)c1cc(O)c(O)c(O)c1` [TF3, theaflavin-3,3′-digallate], for which the EC50 in data set [1] (Severe acute respiratory syndrome coronavirus 2, Vero C1008, read-out: EC50 ο BA.5) is 0.2 µM; with wild-type SARS-CoV-2, 0.3 µM; in [2] (Severe acute respiratory syndrome coronavirus 2, Vero C1008), 0.2 µM. This molecule registered a CC50 at 3 days in data set [3] above 100 µM. In addition, the “inhibition of the interaction between recombinant ACE2 and RBD” value with recombinant ACE2 and RBD is given as “effectively inhibiting”.
In general, IC50 refers to the midpoint of a concentration-inhibition curve. Regarding `Oc1cc(O)c2c(c1)OC(c1ccc(O)c(O)c1)C(O)C2` (stereo not shown) [catechin], the concentration for half-maximal inhibition (IC50) at furin (triplicate, mean ± SD) was above 100 µM; against SARS-CoV-2 3CL^pro, above 100 µM; against SARS-CoV-2 RdRp, above 100 µM; against cathepsin L (triplicate, mean ± SD), above 100 µM; on SARS-CoV-2 PL^pro (setting [6]), 17.8 ± 2.2 µM; on SARS-CoV-2 PL^pro (setting [7]) it was 24.6 ± 3.3 µM. Further, the results for the IC50 at SARS-CoV-2 PL^pro (setting [8]) and against TMPRSS2 (setting [9]) were 18.7 ± 3.5 µM and above 100 µM, respectively. Further, the EC50 in data set [1] (setting [4]) and in [2] (setting [5]) was above 10 µM each time. Moreover, the “inhibition against 3CL^pro” value against SARS-CoV-2 3CL^pro (in words) was “no inhibition”. Besides, the “inhibition of Delta SARS-CoV-2” value in data set [2] (at 10 μM) is reported as “did not inhibit”. For the same molecule, the CC50 at 3 days in [3] (Vero E6 cells, Vero E6, 3 days, read-out: CC50) was 107 µM.
As to `O=C(O[C@@H]1Cc2c(O)cc(O)cc2O[C@@H]1c1cc(O)c(=O)c2c(O)c(O)c(O)cc2c1)c1cc(O)c(O)c(O)c1` [epitheaflagallin-3-O-gallate], the IC50 at furin (triplicate, mean ± SD) was 55 ± 6.5 µM; at SARS-CoV-2 3CL^pro (setting [10]) it was 31.2 ± 2.6 µM; on SARS-CoV-2 RdRp, above 100 µM; on cathepsin L (triplicate, mean ± SD) it was above 100 µM; on SARS-CoV-2 PL^pro (setting [11]), above 100 µM; against TMPRSS2 (setting [9]) it was 35.3 ± 2.7 µM. Also, the EC50 in data set [1] (setting [4]) was 0.6 µM; in data set [2] (setting [5]), 0.5 ± 0.1 µM. In data set [3], this molecule registered a CC50 at 3 days of 109 ± 45.3 µM.
In the case of `O=C(O[C@@H]1Cc2c(O)cc(O)cc2O[C@@H]1c1cc(O)c(=O)c2c(O)c(O)cc([C@H]3Oc4cc(O)cc(O)c4C[C@H]3O)c2c1)c1cc(O)c(O)c(O)c1` [theaflavin-3-gallate], the IC50 against furin (triplicate, mean ± SD) is 36.7 ± 5.7 µM; on SARS-CoV-2 3CL^pro (setting [10]), 8.8 ± 0.8 µM; at SARS-CoV-2 RdRp, above 100 µM; on cathepsin L (triplicate, mean ± SD) it was above 100 µM; on SARS-CoV-2 PL^pro (setting [11]), above 100 µM; on TMPRSS2 (setting [9]), 48.7 ± 3 µM. Also, the EC50 in data set [1] (setting [4]) and in data set [2] (setting [5]) was 0.4 µM each time. Further, the CC50 at 3 days in data set [3] is above 100 µM.
Regarding `O=C(O[C@@H]1Cc2c(O)cc(O)cc2O[C@@H]1c1cc(O)c(O)c2c(=O)c(O)cc([C@H]3Oc4cc(O)cc(O)c4C[C@H]3O)cc12)c1cc(O)c(O)c(O)c1` [theaflavin-3′-gallate], the half-maximal inhibitory concentration (IC50) against furin (triplicate, mean ± SD) is 58.5 ± 6.4 µM; on SARS-CoV-2 3CL^pro (setting [10]), 6.7 ± 0.8 µM; against SARS-CoV-2 RdRp, 23.2 ± 0.4 µM; against cathepsin L (triplicate, mean ± SD), 51.1 ± 2.2 µM; on SARS-CoV-2 PL^pro (setting [11]), above 100 µM; against TMPRSS2 (setting [9]), 6.2 ± 0.6 µM. Moreover, the EC50 is 0.4 µM in data set [1] (setting [4]) and 0.8 ± 0.1 µM in data set [2] (setting [5]). This molecule also had a CC50 at 3 days in data set [3] of 69.9 ± 12.9 µM.
For `O=c1c(O)cc([C@H]2Oc3cc(O)cc(O)c3C[C@H]2O)cc2c([C@H]3Oc4cc(O)cc(O)c4C[C@H]3O)cc(O)c(O)c12` [theaflavin], the IC50 against furin (triplicate, mean ± SD) is above 100 µM; at SARS-CoV-2 3CL^pro (setting [10]), 16.1 ± 2.5 µM; against SARS-CoV-2 RdRp it was 40.2 ± 2.3 µM; against cathepsin L (triplicate, mean ± SD), 11.1 ± 1.1 µM; on SARS-CoV-2 PL^pro (setting [6]), 11.2 ± 1.3 µM; at SARS-CoV-2 PL^pro (setting [7]), 10.6 ± 0.9 µM. Also, the half-maximal inhibitory concentration (IC50) is 9.9 ± 0.9 µM at SARS-CoV-2 PL^pro (setting [8]) and above 100 µM on TMPRSS2 (setting [9]). Also, the EC50 in data set [1] (setting [4]) was 2.2 µM; in data set [2] (setting [5]) it was 7.4 ± 0.1 µM. The CC50 at 3 days in data set [3] was determined as 66.4 ± 3.2 µM.
For proanthocyanidin, the IC50 was above 100 µM against furin; 18.4 ± 1.1 µM at SARS-CoV-2 3CL^pro (read-out: IC50 3CL^pro); 23.4 ± 1.3 µM on SARS-CoV-2 RdRp; above 100 µM against cathepsin L; 7.3 ± 0.6 µM at SARS-CoV-2 PL^pro (setting [6]); 3.3 ± 0.4 µM on SARS-CoV-2 PL^pro (setting [7]). The IC50 was found to be 2.4 ± 0.3 µM at SARS-CoV-2 PL^pro (setting [8]) and 47 ± 4.6 µM on TMPRSS2. For the same molecule, the EC50 in [1] (Omicron BA.5, plaque reduction, Vero E6, read-out: EC50 ο BA.5 (converted)) was 0.2 µM; in data set [2] (Delta strain, plaque reduction, Vero E6, entry treatment, read-out: EC50 δ), 0.5 ± 0.1 µM. In the data set on Vero E6 cells, this molecule yielded a CC50 above 100 µM.

The values above are taken from publication PMC11154727, “Systematic Studies on the Anti-SARS-CoV-2 Mechanisms of Tea Polyphenol-Related Natural Products” (ACS Omega, 2024).
